Assay results: US7135466B2 (Kirin Beer Kabushiki Kaisha, priority 1999, dated 2006)
Where two headings read alike, the source gives them in different places.

Legend:
c-kit = biological target: T1, c-kit (Homo sapiens, UniProt P10721); experiment: Inhibitory activity against c-kit autophosphorylation (MO7e cells, h-SCF); format: cell-based; conditions: for inhibition at 1 µM: Mo7e; for IC50: MO7e cells, read-out: c-kit IC50
T1 construct: MO7e (human megakaryocytic leukemia cell line) which had been arrested for 20 hr; endogenous in cells; host or cells: MO7e human megakaryocytic leukemia cell line
Method in brief: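 In this cellular autophosphorylation assay, compound-treated MO7e cells (1 hr) were challenged with human stem cell factor at 50 ng/ml for 5 min; detection relied on PY-20 capture and anti-c-kit/HRP immunodetection at 450 nm.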

PDGF-R = PDGF-R (Rattus norvegicus, UniProt Q05030); experiment: PDGF-R autophosphorylation inhibition screening (dot plotting), vascular smooth muscle cells, PDGF-BB; format: cell-based; conditions: for inhibition at 1 µM: figure in parentheses in −( ), at 1000 nM, read-out: PDGF (D) inhibition (%) at 1000 nM; for IC50: PDGF (D) column
Protocol: PDGF-R Autophosphorylation Inhibition Screening (Dot Plotting)
Vascular smooth muscle cells (passage 5 to 10) collected from rat thoracic aorta by the explant method were planted at 8×10^3 cells per well in 96-well plates, subject to a serum starvation state, and 24 hr after the plantation then assayed.
A test compund was added, and the mixture was incubated at 37° C. for one hr. Thereafter, PDGF-BB was added to 50 ng/ml, and the mixture was incubated for 5 min, followed by washing with cold PBS. Lysate buffer (20 μl/well) was then added, SDS buffer ([…]) was added thereto, and 2 μl of the mixture was then spotted on a PDVF membrane.
Treatment was carried out with anti-mouse IgG which had been labelled with peroxidase after treatment with an anti-phosphotyrosine antibody, followed by development in an ECL color development kit (Amersham). Thereafter, the color intensity was quantitatively determined by image analysis.

human KDR = biological target: T2, human KDR (Homo sapiens, UniProt P35968); experiment: Inhibitory activity against KDR phosphorylation (NIH 3T3 cells transfected with human KDR, VEGF); format: cell-based; conditions: VEGF 100 ng/ml
T2 construct: expressed in transfected cells; host or cells: NIH 3T3 cells
Protocol: Measurement of Inhibitory Activity Against KDR Phosphorylation
NIH 3T3 cells (Sawano A et al., Cell Growth & Differentiation, 7, 213–221 (1996)) prepared by transfection of human KDR were cultured in a DMEM medium containing 10% FBS (GIBCO BRL) within a 5% carbon dioxide incubator until 50 to 70% confluent. The harvested cells were inoculated into wells of a collagen-type one-coat 96-well flat-bottom plate, each containing the same medium, in an amount of 1.5×10^4 per well, followed by cultivation at 37° C. overnight. The medium was then replaced by a DMEM medium containing 0.1% FBS. A solution of a test compound in dimethyl sulfoxide was added to each well, and the cultivation was carried out at 37° C. for additional one hr. A human recombinant vascular endothelial growth factor (hereinafter abbreviated to “VEGF”) was added to a concentration of 100 ng/ml, and the stimulation of cells was carried out at 37° C. for 2 min. The medium was removed, the cells were washed with phosphate buffered saline (pH 7.4), and 50 μl of a solubilization buffer (20 mM HEPES (pH 7.4), 150 mM NaCl, 0.2% Triton X-100, 10% glycerol, 5 mM sodium orthovanadylate, 5 mM disodium ethylenediaminetetraacetate, and 2 mM Na4P2O7) was then added thereto. The mixture was shaken at 4° C. for 2 hr to prepare a cell extract.
An anti-phospho-tyrosine antibody (PY20; Transduction Laboratories) was immobilized on a microplate for ELISA (Maxisorp; NUNC), and the whole quantity of the cell extract was transferred to the wells, and the immobilized antibody was reacted with the phosphorylated protein at 4° C. overnight. After washing, an anti-KDR antibody (Santa Cruz) was allowed to react at room temperature for one hr, and, further, after washing, a peroxidase-labeled anti-rabbit Ig antibody (Amersham) was allowed to react at room temperature for one hr. After washing, a chromophoric substrate for peroxidase (Sumitomo Bakelite Co., Ltd.) was added thereto and was allowed to react at room temperature. After a suitable level of color development, a reaction termination solution was added to stop the reaction, and the absorbance at 450 nm was measured with a microplate reader. The KDR phosphorylation activity for each well was determined by presuming the absorbance with the addition of VEGF and without the addition of the medicament to be 100% KDR phosphorylation activity and the absorbance without the medicament and VEGF to be 0% KDR phosphorylation activity.
The concentration of the test compound was varied on several levels, the inhibition (%) of KDR phosphorylation was determined for each case, and the concentration of the test compound necessary for inhibiting 50% of KDR phosphorylation (IC50) was calculated.

PDGF-Ra = biological target: T3, PDGF-Ra (Homo sapiens, UniProt P16234); experiment: Inhibitory activity against PDGF-Ra phosphorylation by PDGF-AA stimulation using G292; format: cell-based; conditions: > means inhibition at indicated concentration not more than 50%, < and << not less than 50%; read-out: PDGF (E) IC50
T3 construct: host or cells: G-292 human osteosarcoma cells
Method in brief: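 In G-292 osteosarcoma cells kept overnight in 0.1% FBS, compound exposure (1 hr, 37 °C) preceded PDGF-AA stimulation at 50 ng/ml for 5 min; receptor phosphotyrosine was then detected by PY-20 capture ELISA.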

[1] = system: neointima of balloon-injured left carotid artery; experiment: Rat carotid balloon injury model; format: in vivo; conditions: po, 336 h, read-out: I/M ratio, inhibition (%)
Protocol: Rat Carotid Balloon Injury Model
Wistar male rats ([…]) were anesthetized with pentobarbital anesthesia, the right femoral region was incised from the rats, a Fogaty 2F catheter was inserted through the right femoral artery and was led to the left carotid artery, and abrasion was made three times with an expansion diameter of 2.5 mm.
The test compound was suspended in 1% cremophore, and the suspension was orally administered at 0.4 ml/100 g B.W. twice a day through an oral probe for rats for 2 weeks from the day before an operation. On the second week after the operation, the rats were sacrificed by ether. The left carotid artery was removed and was fixed in buffered formalin. Sliced preparations embedded in paraffin were stained with HE and were subjected to image analysis for the measurement of the neointima area (I) and media area (M) in the section of injured blood vessal. I/M was calculated as an index for the evaluation of drug efficacy.

[2] = figure in parentheses in −( ), at 1000 nM

T1 sequence (P10721 26-976): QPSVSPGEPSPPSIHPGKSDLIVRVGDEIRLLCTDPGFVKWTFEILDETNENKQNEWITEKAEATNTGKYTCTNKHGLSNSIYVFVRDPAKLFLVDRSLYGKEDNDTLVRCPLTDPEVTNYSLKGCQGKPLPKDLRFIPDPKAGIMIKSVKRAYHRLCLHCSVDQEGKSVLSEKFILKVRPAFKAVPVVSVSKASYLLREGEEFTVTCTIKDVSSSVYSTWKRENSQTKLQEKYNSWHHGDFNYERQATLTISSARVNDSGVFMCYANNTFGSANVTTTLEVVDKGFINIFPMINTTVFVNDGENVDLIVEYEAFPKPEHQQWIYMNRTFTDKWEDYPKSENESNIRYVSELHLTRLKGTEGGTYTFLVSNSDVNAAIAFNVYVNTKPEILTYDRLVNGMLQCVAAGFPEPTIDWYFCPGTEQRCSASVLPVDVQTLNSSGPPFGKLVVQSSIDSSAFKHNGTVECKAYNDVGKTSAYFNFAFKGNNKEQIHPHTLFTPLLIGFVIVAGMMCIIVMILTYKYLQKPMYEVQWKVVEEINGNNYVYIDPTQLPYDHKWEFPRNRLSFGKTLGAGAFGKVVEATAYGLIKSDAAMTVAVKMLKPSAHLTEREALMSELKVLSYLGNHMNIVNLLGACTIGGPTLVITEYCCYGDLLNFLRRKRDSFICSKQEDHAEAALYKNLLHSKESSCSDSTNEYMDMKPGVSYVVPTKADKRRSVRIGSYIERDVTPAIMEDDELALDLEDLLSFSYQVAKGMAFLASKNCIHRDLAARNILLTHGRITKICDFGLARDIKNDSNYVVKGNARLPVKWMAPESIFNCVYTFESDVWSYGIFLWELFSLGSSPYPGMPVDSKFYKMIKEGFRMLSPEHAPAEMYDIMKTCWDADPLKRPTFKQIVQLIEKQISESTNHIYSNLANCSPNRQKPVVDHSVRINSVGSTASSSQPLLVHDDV
Chain of PDGF-R (Q05030 32-1097): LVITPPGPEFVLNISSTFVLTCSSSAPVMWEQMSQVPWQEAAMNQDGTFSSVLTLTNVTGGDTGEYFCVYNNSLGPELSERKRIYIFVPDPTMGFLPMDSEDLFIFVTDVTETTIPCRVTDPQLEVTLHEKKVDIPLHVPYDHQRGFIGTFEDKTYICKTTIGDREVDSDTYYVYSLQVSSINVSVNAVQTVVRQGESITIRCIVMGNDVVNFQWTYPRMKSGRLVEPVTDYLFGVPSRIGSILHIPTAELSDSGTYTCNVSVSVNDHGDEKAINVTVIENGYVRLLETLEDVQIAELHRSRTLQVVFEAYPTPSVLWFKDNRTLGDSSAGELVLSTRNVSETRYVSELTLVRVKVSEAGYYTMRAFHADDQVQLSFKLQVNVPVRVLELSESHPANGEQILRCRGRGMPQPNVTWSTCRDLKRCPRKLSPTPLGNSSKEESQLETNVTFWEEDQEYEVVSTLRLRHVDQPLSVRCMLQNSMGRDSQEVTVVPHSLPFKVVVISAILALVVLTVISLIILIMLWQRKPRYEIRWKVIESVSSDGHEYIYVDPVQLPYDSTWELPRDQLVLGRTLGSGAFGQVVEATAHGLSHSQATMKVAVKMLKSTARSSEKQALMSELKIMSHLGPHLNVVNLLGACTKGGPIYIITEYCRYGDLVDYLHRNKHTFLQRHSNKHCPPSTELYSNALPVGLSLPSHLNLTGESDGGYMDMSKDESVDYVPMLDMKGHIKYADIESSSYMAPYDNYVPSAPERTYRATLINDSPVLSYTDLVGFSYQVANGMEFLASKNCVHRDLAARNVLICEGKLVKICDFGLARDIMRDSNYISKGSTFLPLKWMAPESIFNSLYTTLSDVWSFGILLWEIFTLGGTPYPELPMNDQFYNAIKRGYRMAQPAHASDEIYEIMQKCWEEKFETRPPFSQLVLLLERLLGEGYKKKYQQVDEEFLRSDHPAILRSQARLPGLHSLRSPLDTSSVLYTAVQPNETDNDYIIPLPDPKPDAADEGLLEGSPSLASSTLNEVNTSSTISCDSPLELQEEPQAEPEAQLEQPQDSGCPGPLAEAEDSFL
T2 sequence (P35968 20-1356): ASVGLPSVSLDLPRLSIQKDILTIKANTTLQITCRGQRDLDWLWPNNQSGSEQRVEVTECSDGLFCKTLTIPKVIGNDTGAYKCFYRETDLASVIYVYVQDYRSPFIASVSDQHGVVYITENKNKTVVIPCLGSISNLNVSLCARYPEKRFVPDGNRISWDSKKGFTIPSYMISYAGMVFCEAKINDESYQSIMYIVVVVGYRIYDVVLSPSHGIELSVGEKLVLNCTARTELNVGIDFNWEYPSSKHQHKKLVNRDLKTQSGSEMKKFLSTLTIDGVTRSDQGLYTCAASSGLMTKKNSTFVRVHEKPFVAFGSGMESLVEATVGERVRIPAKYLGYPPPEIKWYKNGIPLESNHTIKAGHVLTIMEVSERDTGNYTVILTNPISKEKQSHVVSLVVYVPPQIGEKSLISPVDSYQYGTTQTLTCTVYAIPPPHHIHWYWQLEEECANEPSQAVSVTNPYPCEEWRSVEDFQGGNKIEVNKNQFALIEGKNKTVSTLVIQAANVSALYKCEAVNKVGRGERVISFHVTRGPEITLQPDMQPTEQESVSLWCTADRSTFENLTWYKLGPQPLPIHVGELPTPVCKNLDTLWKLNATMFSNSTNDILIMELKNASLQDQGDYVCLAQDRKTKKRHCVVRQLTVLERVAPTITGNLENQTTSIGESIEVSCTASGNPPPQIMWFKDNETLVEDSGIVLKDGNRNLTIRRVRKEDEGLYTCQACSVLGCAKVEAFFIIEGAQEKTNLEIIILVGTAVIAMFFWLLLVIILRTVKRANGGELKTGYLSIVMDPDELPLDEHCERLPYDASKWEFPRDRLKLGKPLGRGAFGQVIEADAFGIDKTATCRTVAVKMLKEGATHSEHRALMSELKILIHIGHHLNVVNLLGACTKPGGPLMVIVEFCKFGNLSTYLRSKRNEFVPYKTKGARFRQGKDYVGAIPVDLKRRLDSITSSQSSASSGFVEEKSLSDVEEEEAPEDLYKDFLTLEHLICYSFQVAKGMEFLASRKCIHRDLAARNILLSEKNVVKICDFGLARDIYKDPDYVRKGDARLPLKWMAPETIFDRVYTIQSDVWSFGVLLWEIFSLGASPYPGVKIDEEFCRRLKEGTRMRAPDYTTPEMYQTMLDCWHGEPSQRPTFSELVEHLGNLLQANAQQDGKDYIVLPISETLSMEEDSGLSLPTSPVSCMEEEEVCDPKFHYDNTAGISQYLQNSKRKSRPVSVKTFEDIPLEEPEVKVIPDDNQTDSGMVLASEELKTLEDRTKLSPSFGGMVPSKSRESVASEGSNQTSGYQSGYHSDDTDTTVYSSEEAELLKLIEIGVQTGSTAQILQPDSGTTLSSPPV
T3 sequence (P16234 24-1089): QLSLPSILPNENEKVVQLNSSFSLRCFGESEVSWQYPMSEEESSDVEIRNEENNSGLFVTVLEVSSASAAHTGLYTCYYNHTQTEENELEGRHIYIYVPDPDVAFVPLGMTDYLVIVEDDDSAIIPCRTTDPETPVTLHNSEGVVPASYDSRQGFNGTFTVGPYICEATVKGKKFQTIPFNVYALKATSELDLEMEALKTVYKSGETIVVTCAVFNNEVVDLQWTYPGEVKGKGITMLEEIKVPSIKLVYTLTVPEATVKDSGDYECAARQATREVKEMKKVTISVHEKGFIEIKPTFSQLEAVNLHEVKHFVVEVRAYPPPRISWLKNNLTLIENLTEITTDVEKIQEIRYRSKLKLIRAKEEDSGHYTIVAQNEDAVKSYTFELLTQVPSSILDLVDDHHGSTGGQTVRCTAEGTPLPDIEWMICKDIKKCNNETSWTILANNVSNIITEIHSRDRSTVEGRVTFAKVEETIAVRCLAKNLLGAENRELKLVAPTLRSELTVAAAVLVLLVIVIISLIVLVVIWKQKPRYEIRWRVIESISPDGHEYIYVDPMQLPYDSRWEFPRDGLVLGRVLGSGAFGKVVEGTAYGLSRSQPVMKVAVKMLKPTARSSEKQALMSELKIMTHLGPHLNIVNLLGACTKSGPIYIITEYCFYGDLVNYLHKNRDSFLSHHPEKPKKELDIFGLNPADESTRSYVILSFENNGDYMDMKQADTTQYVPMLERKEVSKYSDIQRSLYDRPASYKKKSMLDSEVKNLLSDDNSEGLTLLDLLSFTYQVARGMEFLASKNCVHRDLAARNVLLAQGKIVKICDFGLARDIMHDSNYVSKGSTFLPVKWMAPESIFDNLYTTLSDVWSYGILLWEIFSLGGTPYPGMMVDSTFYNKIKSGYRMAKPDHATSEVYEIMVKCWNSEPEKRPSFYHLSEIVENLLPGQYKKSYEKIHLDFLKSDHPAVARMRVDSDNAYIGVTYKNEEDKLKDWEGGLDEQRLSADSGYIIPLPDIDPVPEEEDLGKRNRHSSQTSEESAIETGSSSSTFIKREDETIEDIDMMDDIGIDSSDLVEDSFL

Row | Compound | inhibition at 1 µM (c-kit; [2]) [%] | inhibition at 1 µM (PDGF-R) [%] | other results
1 | COc1cc2nccc(Oc3ccc([S+]([O-])CCOc4ccc(F)cc4[N+](=O)[O-])cc3)c2cc1OC (stereo not shown) [Example 839, {4-[(6,7-Dimethoxy-4-quinolyl)oxy]phenyl}[2-(4-fluoro-2-nitrophenoxy)ethyl] sulfoxide] | 30 | 24 | 
2 | COc1cc2nccc(Oc3ccc(NC(=S)NC(=O)Cc4ccccc4)cc3F)c2cc1OC [Example 615, N-{4-[(6,7-Dimethoxy-4-quinolyl)oxy]-3-fluorophenyl}-N′-(2-phenylacetyl)thiourea] |  |  | IC50 (human KDR): 37 nM; IC50 (PDGF-Ra): 17 nM; inhibition in vivo at 30 mg/kg ([1]; in vivo, dose: 30 mg/kg, orally twice a day for 2 weeks, Wistar male rats): 43%; IC50 (c-kit; 50 ng/ml h-SCF): 125 nM
3 | COc1cc2nccc(Oc3ccc(NC(=O)Oc4ccccc4C)cc3)c2cc1OC [Example 223, 2-Methylphenyl N-{4-[(6,7-dimethoxy-4-quinolyl)oxy]phenyl}carbamate] |  |  | IC50 (human KDR): 38 nM; inhibition in vivo at 30 mg/kg [1]: 41%; IC50 (c-kit; h-SCF 50 ng/ml): 101 nM
4 | COc1cc2nccc(Oc3ccc(NC(=S)NC(=O)c4ccc(Cl)cc4Cl)c(C)c3C)c2cc1OC [Example 1086, N-(2,4-Dichlorobenzoyl)-N′-{4-[(6,7-dimethoxy-4-quinolyl)oxy]-2,3-dimethylphenyl}thiourea] | 19 | 48 | 
5 | COc1cccc(OCCS(=O)(=O)c2ccc(Oc3ccnc4cc(OC)c(OC)cc34)cc2)c1 [Example 830, 4-[(6,7-Dimethoxy-4-quinolyl)oxy]phenyl [2-(3-methoxyphenoxy)ethyl]sulfone] | 10 | 23 | 
6 | COc1cc2nccc(Oc3ccc(NC(=S)NC(=O)c4ccc(C)cc4)c(C)c3)c2cc1OC [Example 1096, N-{4-[(6,7-Dimethoxy-4-quinolyl)oxy]-2-methylphenyl}-N′-(4-methylbenzoyl)thiourea] | 3 | 30 | 
7 | {4-[(6,7-Dimethoxy-4-quinolyl)oxy]phenyl}[2-(3-methoxy-4-nitrophenoxy)ethyl] sulfoxide [Example 838] |  |  | c-kit inhibition (%) at 1000 nM (c-kit; [2]): −(23) %; IC50 (PDGF-R; > means inhibition at indicated concentration not more than 50%, < not less than 50%): 590 nM
8 | COc1cc2nccc(Oc3ccc(S(=O)(=O)CCOc4ccc(Cl)cc4Cl)cc3)c2cc1OC [Example 831, 2-(2,4-Dichlorophenoxy)ethyl{4-[(6,7-dimethoxy-4-quinolyl)oxy]phenyl}sulfone] | 19 | 50 | 
9 | CCCCCCCCCCCCCC(=O)NC(=S)Nc1ccc(Oc2ccnc3cc(OC)c(OC)cc23)cc1 [Example 1073, N-{4-[(6,7-Dimethoxy-4-quinolyl)oxy]phenyl}-N′-tetradecanoylthiourea] | 20 | 23 | 
10 | COc1ccc(C(=O)NC(=S)Nc2ccc(Oc3ccnc4cc(OC)c(OC)cc34)cc2C)cc1 [Example 1095, N-{4-[(6,7-Dimethoxy-4-quinolyl)oxy]-2-methylphenyl}-N′-(4-methoxybenzoyl)thiourea] | 25 | 20 | 
11 | COc1cc2nccc(Oc3ccc(S(=O)(=O)CCOc4cccc(Cl)c4)cc3)c2cc1OC [Example 832, 2-(3-Chlorophenoxy)ethyl{4-[(6.7-dimethoxy-4-quinolyl)oxy]phenyl}sulfone] | 21 | 35 | 
12 | COc1cc2nccc(Oc3ccc(S(=O)(=O)CCOc4ccc(C)cc4)cc3)c2cc1OC [Example 834, 4-[(6,7-Dimethoxy-4-quinolyl)oxy]phenyl [2-(4-methylphenoxy)ethyl]sulfone] | 1 | 23 | 
13 | COc1cc2nccc(Oc3ccc(NC(=S)NC(=O)c4ccc([N+](=O)[O-])cc4)c(C)c3)c2cc1OC [Example 1092, N-{4-[(6,7-Dimethoxy-4-quinolyl)oxy]-2-methylphenyl}-N′-(4-nitrobenzoyl)thiourea] | 10 | 15 | 
14 | COc1cc2nccc(Oc3ccc(NC(=S)NC(=O)c4ccc([N+](=O)[O-])cc4)c(C)c3C)c2cc1OC [Example 1081, N-{4-[(6,7-Dimethoxy-4-quinolyl)oxy]-2,3-dimethylphenyl}-N′-(4-nitrobenzoyl)thiourea] | 47 | 50 | 
15 | N-{4-[(6,7-Dimethoxy-4-quinolyl)oxy]-2-fluorophenyl}-N′-(methylamino)urea [Example 611] |  |  | IC50 (c-kit; 50 ng/ml h-SCF): 1070 nM; IC50 (PDGF-R): 95 nM
16 | CCCCCCCCCCCC(=O)NC(=S)Nc1ccc(Oc2ccnc3cc(OC)c(OC)cc23)cc1 [Example 1072, N-{4-[(6,7-Dimethoxy-4-quinolyl)oxy]phenyl}-N′-dodecanoylthiourea] | 18 | 34 | 
17 | COc1cc2nccc(Oc3ccc(S(=O)(=O)CCOc4ccccc4F)cc3)c2cc1OC [Example 837, 4-[(6,7-Dimethoxy-4-quinolyl)oxy]phenyl [2-(2-fluorophenoxy)ethyl]sulfone] | 19 | 10 | 
18 | CCCCCCCCCCCC(=O)NC(=S)Nc1ccc(Oc2ccnc3cc(OC)c(OC)cc23)cc1F [Example 1075, N-{4-[(6,7-Dimethoxy-4-quinolyl)oxy]-2-fluorophenyl}-N′-dodecanoylthiourea] | 31 | 17 | 
19 | COc1ccc(C(=O)NC(=S)Nc2ccc(Oc3ccnc4cc(OC)c(OC)cc34)cc2F)c(OC)c1 [Example 1123, N-(2,4-Dimethoxybenzoyl)-N′-{4-[(6,7-dimethoxy-4-quinolyl)oxy]-2-fluorophenyl}thiourea] |  | 43 | IC50 (c-kit; h-SCF stimulation): 961 nM
20 | COc1cc2nccc(Oc3ccc(S(=O)(=O)CCOc4ccc(F)cc4)cc3)c2cc1OC [Example 829, 4-[(6,7-Dimethoxy-4-quinolyl)oxy]phenyl [2-(4-fluorophenoxy)ethyl]sulfone] | 10 | 30 | 
